Entries after “also recorded” stand apart in the source; their conditions may differ. * marks the point of attachment. Boc = CC(C)(C)OC(=O)*

One assay has as its system Wnt5a/FZD5. Description: Immunocytochemistry of Wnt5a/FZD5 colocalization and vesicles in hpRPE cells. The format is cell-based, human. Particulars: for size of FZD5/Wnt5a vesicles: Wnt5a added; for size of FZD5/Wnt5a vesicles / vesicle load (mean intensity per vesicle) / intensity and number of Wnt5a-positive vesicles / number of FZD5-positive vesicles: IMARIS; for vesicle load (mean intensity per vesicle): external Wnt5a added; for number of Wnt5a/FZD5 colocalized vesicles per field: UOS 1600 μM H2O2, 2 hours, +/− 50 ng/ml Wnt5a, no Pitstop2. How it is done: To ascertain localization and interaction between FZD5 and Wnt5a we incubated hpRPE undergoing UOS with Wnt5a+/−NPD1 or other lipid mediators.
(§1) Immunostaining can be performed in 8-well slide chambers and the Hoechst staining in 24-well plates. […] Briefly, cells can be fixed using 4% paraformaldehyde in PBS 1× for 20 min at room temperature or overnight at 4° C. After three washes with PBS, cells can be permeabilized using 0.1% Triton™ X-100 for five minutes and blocked using 10% normal serum and 1% BSA for one hour. […] Hoechst staining can be performed using same protocol of fixation. In one embodiment, permeabilization is done using methanol for 20 min at room temperature. […] Dying cells can be identified by size (0 to 50 pixels), intensity threshold, and circularity. The ratio of hyperpyknotic cells over the total can be calculated for nine randomly chosen fields per sample obtained from three independent wells per experiment. Each experiment can be repeated at least three times to confirm the findings.
In an embodiment involving early stages of apoptosis, the total number of cells per field is assessed and counted to ensure unbiased observations. […] Settings can be adjusted in the conditions that show higher intensity and can be used throughout the remaining samples. In an embodiment, Pearson's colocalization coefficient (PCC) is obtained using FV1200 analysis software for every field in each experiment, and the mean and SEM are depicted in FIGS. 7-11.
Immunostaining was performed in 8-well slide chambers and the Hoechst staining in 24 well plates. […] Briefly, cells were fixed using 4% paraformaldehyde in PBS 1× for 20 min at room temperature or overnight at 4° C. After three washes with PBS, cells were permeabilized using 0.1% Triton™ X-100 for five minutes and blocked using 10% normal serum and 1% BSA for one hour. […] Hoechst staining was performed using same protocol of fixation, but permeabilization was done using methanol for 20 min at room temperature. […] Dying cells were identified by size (0 to 50 pixels), intensity threshold and circularity. The ratio of hyperpyknotic cells over the total was calculated for nine randomly chosen fields per sample obtained from three independent wells per experiment. Each experiment was repeated at least three times to confirm the findings. In the experiments involving early stages of apoptosis, we assessed the total number of cells per field and counted them to ensure unbiased observations. […] Pearson's colocalization coefficient (PCC) was obtained using FV1200 analysis software for every field in each experiment, and the mean and SEM are depicted in Figures S1-S5. […] IMARIS software analysis was performed building a colocalization channel using the Costes thresholding, and the colocalized elements were analyzed using the spots function using the settings different spots sites, background subtraction and local contrast. The output obtained consisted on a collection of sizes (one per element in each picture) or the mean of the intensity in each spot.

The subject of a further assay is ARPE-19 cells and hpRPE. Description: Apoptosis by Hoechst staining in RPE cells under UOS. The format is cell-based, human. Particulars: for apoptosis by UOS in the presence of the Wnt ligand: RPE cells under UOS with recombinant Wnt5a; for cell death by UOS on addition of Wnt5a: ARPE-19 cells and hpRPE under UOS, Wnt5a 50 ng/ml. How it is done:
ARPE-19 cells, can be plated and grown in DMEM/F-12 containing 10% FBS and 1× penicillin/streptomycin at 37° C., 5% CO2, 99% relative humidity for 24 h. […] 15-LOX-1 deficient cells can be maintained in the same medium as ARPE-19 with the addition of 500 μg/mL Geneticin (Life Technologies Corporation, Carlsbad, Calif.). Transfection can be performed in all cases using Lipofectamine 2000 (Life Technologies Corporation, Carlsbad, Calif.) following the manufacturer's recommendations. […] Experiments with transfection efficiency that yielded less than 80% can be discarded. For siRNA, we used 6 μl of Lipofectamine 2000 per 50 pmol of siRNA per mL of incubation medium, and, for plasmids, we used 6 μl of Lipofectamine 2000 per 2 μg of plasmid per mL of incubation medium. Cells can be incubated for 5 hours at 37° C., 5% CO2 and 99% relative humidity. […] When siRNA/plasmid co-transfection is required, siRNA and plasmid-carrying transfection mixes can be prepared separately and added one after the other in the same well. Oxidative stress treatments can be performed using 600 (ARPE-19) or 1600 (hRPE) μM H2O2, along with 10 ng/mL TNFα, for the required time indicated in each experiment. The treatment we used employed the low serum (0.5% serum) without hFGF. Treatment to induce uncompensated oxidative stress (UOS) can be performed after 8 hours of low-serum medium incubation unless specifically noted. Wnt5a, Wnt3a or NPD1 can be added immediately before induction of UOS. In the secretion experiments, Pitstop 2 can be added to the medium 2 hours before harvesting.
as §1
ARPE-19 cells, were plated and grown in DMEM/F-12 containing 10% FBS and 1× penicillin/streptomycin at 37° C., 5% CO2, 99% relative humidity for 24 h. […] 15-LOX-1 deficient cells were maintained in the same medium as ARPE-19 with the addition of 500 μg/mL Geneticin (Life Technologies Corporation). Transfection was performed in all cases using Lipofectamine 2000 (Life Technologies Corporation) following the manufacturer's recommendations. […] Experiments with transfection efficiency that yielded less than 80% were discarded. For siRNA, we used 6 μl of Lipofectamine 2000 per 50 pmol of siRNA per mL of incubation medium, and, for plasmids, we used 6 μl of Lipofectamine 2000 per 2 μg of plasmid per mL of incubation medium. Cells were incubated for 5 hours at 37° C., 5% CO2 and 99% relative humidity. […] When siRNA/plasmid co-transfection was required, siRNA and plasmid-carrying transfection mixes were prepared separately and added one after the other in the same well. […] The treatment we used employed the low serum (0.5% serum) without hFGF. Treatment to induce uncompensated oxidative stress (UOS) was performed after 8 hours of low-serum medium incubation unless specifically noted. Wnt5a, Wnt3a or NPD1 was added immediately before induction of UOS.

In the case of `CC/C=C\C[C@H](O)\C=C/C=C/C=C/[C@H](O)C/C=C\C/C=C\CCC(=O)O` [NPD1, 10R,17S-dihydroxy-docosa-4Z,7Z,11E,13E,15Z,19Z-hexaenoic acid], in the assay with Wnt5a/FZD5 (hpRPE under UOS), the “size of FZD5/Wnt5a vesicles” value is recorded as “Neither NPD1 nor Box5 affected the magnitude of the Wnt5a effect”; the “vesicle load (mean intensity per vesicle)” value was “higher Wnt5a/FZD5 and FZD5/Clathrin vesicle intensity when Wnt5a was added”; the “intensity and number of Wnt5a-positive vesicles” value is recorded as “difference in mean intensity distribution”; the “number of FZD5-positive vesicles” value is reported as “decrease the number of FZD5-positive vesicles”. The “mode of Wnt5a and FZD5 signal intensity” value with Wnt5a/FZD5 (hpRPE under UOS, absence of rWnt5a) was “restore both modes to control levels”. For the same molecule, in the assay with Wnt5a/FZD5 (hpRPE), the “number of Wnt5a/FZD5 colocalized vesicles per field” value is on record as “brought down the number of vesicles per field; also recorded: had the same effect; also recorded: decreased the amount of vesicles per field”. For the same molecule, the “quantity of large only-Wnt5a positive spots” value in the assay on Wnt5a/FZD5 (hpRPE, absence of Wnt5a) was “increased”. In addition, the “UOS-dependent NFkB activation and apoptosis (FIG. 18B legend)” value with ARPE-19 cells and hpRPE is “counteracted these effects”. In addition, the “apoptosis by UOS in the presence of the Wnt ligand” value with ARPE-19 cells and hpRPE (Hoechst staining) was “blocked apoptosis; also recorded: hindered apoptosis”.

Turning to “t-Boc-NH-Met-Asp-Gly-Cys-Glu-Leu-CO2H (Boc-MDGCEL-OH) [Box5]”, in the assay on Wnt5a/FZD5 (hpRPE under UOS), the “size of FZD5/Wnt5a vesicles” value is given as “Neither NPD1 nor Box5 affected the magnitude of the Wnt5a effect”; the “vesicle load (mean intensity per vesicle)” value is reported as “did not affected vesicle loads that showed FZD5/clathrin or Wnt5a/clathrin signal”; the “intensity and number of Wnt5a-positive vesicles” value was “did not modify the increase in intensity and number induced by UOS”; the “number of FZD5-positive vesicles” value was “decrease the number of FZD5-positive vesicles”. Also, the “number of Wnt5a/FZD5 colocalized vesicles per field” value in the assay on Wnt5a/FZD5 (hpRPE) is recorded as “decreased Wnt5a induction”. Further, in the assay with ARPE-19 cells and hpRPE (Hoechst staining), the “apoptosis by UOS in the presence of the Wnt ligand” value is reported as “blocked apoptosis; also recorded: hindered apoptosis”. Besides, the “apoptosis in cells only exposed to UOS” value in the assay with ARPE-19 cells and hpRPE (no Wnt5a added, Hoechst staining) was “decreased apoptosis; also recorded: prevented cell death”.

B1: Wnt5a: Recombinant Human/Mouse Wnt-5a Protein, CHO-derived (Gln38-Lys380), R&D systems 645-WN (protein)
chain: QVVIEANSWWSLGMNNPVQMSEVYIIGAQPLCSQLAGLSQGQKKLCHLYQDHMQYIGEGAKTGIKECQYQFRHRRWNCSTVDNTSVFGRVMQIGSRETAFTYAVSAAGVVNAMSRACREGELSTCGCSRAARPKDLPRDWLWGGCGDNIDYGYRFAKEFVDARERERIHAKGSYESARILMNLHNNEAGRRTVYNLADVACKCHGVSGSCSLKTCWLQLADFRKVGDALKEKYDSAAAMRLNSRGKLVQVNSRFNSPTTQDLVYIDPSPDYCVRNESTGSLGTQGRLCNKTSEGMDGCELMCCGRGYDQFKTVQTERCHCKFHWCCYVKCKKCTEIVDQFVCK
On to B1, for which the “number of Wnt5a/FZD5 colocalized vesicles per field” value with Wnt5a/FZD5 (hpRPE) is “increased the number of vesicles that co-localize with FZD5”. Also, the “cell death by UOS on addition of Wnt5a” value in the assay on ARPE-19 cells and hpRPE was “enhanced cell death triggered by H2O2; also recorded: enhances the percentage of cell death induced by UOS”; in the assay with ARPE-19 cells and hpRPE (listed as Recombinant Wnt5a) it was “potentiated cell death by UOS”. Also, the “effect of Wnt5a alone on RPE cells (apoptosis)” value in the assay on ARPE-19 cells and hpRPE (resting cells, no UOS) is recorded as “no effect”.

These data come from patent US20220119446A1, “BIOMARKERS AND TREATMENT OF NEURONAL INJURY AND NEURODEGENERATION” (Board of Supervisons of Louisiana State University and …, priority 2018, published 2022).
